Data reported in US20040122109A1, “Preparation for hair and/or scalp” (priority 2001, published 2004).

Legend:
hairless rats = assay: Prevention of hair removal: hair removal score of hairless rats; format: in vivo, rat; settings: for Hair removal score of hairless rat, before application: 4-week old male hairless rats in pilose period, baseline, score 1-5 (1 = no hair removal, 5 = hair removal in 60% or more); for Hair removal score of hairless rat, before application / Hair removal score of hairless rat, 71 days after: n = 5, Average ± S.D.; for Hair removal score of hairless rat, 71 days after: 10% in PEG1000 applied to back once a day for 12 days, 71st day after application was terminated, score 1-5 (lower = less hair removal); for Activity of preventing hair removal (in words): hairless rats, 10% in PEG1000, once a day for 12 days
Source text: 4-week old male hairless rats in the pilose period were used for evaluating the activity of preventing hair removal. The same samples as those used in Example 1 were used. In each group of five hairless rats, each of the samples was applied to the back of each rat once a day for 12 days, and then a hair removal state was observed after the application was stopped. The hair removal state was observed based on the following scores.
1; No hair removal was observed.
2; Hair became short in 30% or less of the applied region.

C3H mice = assay: Hair restoration test: hair growth score on the shaved back of C3H mice; format: in vivo, mouse; settings: for Hair growth score of C3H mouse, before application: 7-week old male C3H mice in telogen, shaved back, baseline, score 1-5 (1 = skin pink, 5 = hair growth in 60% or more); for Hair growth score of C3H mouse, before application / Hair growth score of C3H mouse, after application: n = 7, Average ± S.D.; for Hair growth score of C3H mouse, after application: 10% in PEG1000 applied to shaved portion once a day, total of 14 times, score 1-5 (higher = more hair growth); for Hair restoration activity (in words): C3H mice, 10% in PEG1000, 14 applications
Source text: The back of each of 7-week old male C3H mice in the telogen period of the hair cycle was carefully shaved, and then groups of seven mice each without wounds at the backs were subjected to a test. In a control group, only polyethylene glycol 1000 (PEG1000) used as a base was applied to each mouse, while in an evaluation group, 10% oxidized coenzyme Q10 or 10% reduced coenzyme Q10 (reduced coenzyme Q10:oxidized coenzyme Q10=95:5) was applied to the shaved portion once a day (total of 14 times). After the application, the back of each mouse was evaluated based on the scores below to evaluate the hair restoration activity of a compound.
2; Less than 30% of the shaved portion was discolored to gray.

Row | SMILES | Hair removal score of hairless rat, before application (hairless rats) | Hair removal score of hairless rat, 71 days after (hairless rats) | Activity of preventing hair removal (in words) (hairless rats) | Hair growth score of C3H mouse, before application (C3H mice) | Hair growth score of C3H mouse, after application (C3H mice) | Hair restoration activity (in words) (C3H mice)
1 | COc1c(O)c(C)c(C/C=C(\C)CC/C=C(\C)CC/C=C(\C)CC/C=C(\C)CC/C=C(\C)CC/C=C(\C)CC/C=C(\C)CC/C=C(\C)CC/C=C(\C)CCC=C(C)C)c(O)c1OC [Reduced coenzyme Q10, reduced coenzyme Q10] | 1.0 ± 0.00 | 3.0 ± 0.71 | has the activity of preventing hair removal | 1.0 ± 0.00 | 3.2 ± 0.64 | a higher hair restoration activity was observed
2 | COC1=C(OC)C(=O)C(C/C=C(\C)CC/C=C(\C)CC/C=C(\C)CC/C=C(\C)CC/C=C(\C)CC/C=C(\C)CC/C=C(\C)CC/C=C(\C)CC/C=C(\C)CCC=C(C)C)=C(C)C1=O [Oxidized coenzyme Q10, oxidized coenzyme Q10] | 1.0 ± 0.00 | 3.6 ± 0.24 | has the activity of preventing hair removal | 1.0 ± 0.00 | 2.7 ± 0.35 | a hair restoration activity was observed
